Values quoted from earlier work, collected in US20080194494A1, “4-Biarylyl-1-Phenylazetidin-2-One Glucuronide Derivatives for Hypercholesterolemia” (MICROBIA, INC., priority 2005, published 2008).

Tests used:
[1] = in vivo
[2] = in humans

## O=C1[C@H](CC[C@H](O)c2ccc(F)cc2)[C@@H](c2ccc(O)cc2)N1c1ccc(F)cc1 [ezetimibe, (3R,4S)-1-(4-fluorophenyl)-3-[(3S)-3-(4-fluorophenyl)-3-hydroxypropyl]-4-(4-hydroxyphenyl)azetidin-2-one]
[1]
  inhibition of the absorption of taurocholic acid: does not inhibit
[2]
  effect on fat-soluble vitamin absorption: does not appear to affect
